Measured values published in patent US20240408065A1, “CYANO COMPOUND, AND PREPARATION METHOD THEREFOR AND USE THEREOF” (SHANGHAI INSTITUTE OF MATERIA MEDICA, CHINESE ACADEMY OF …, priority 2021, published 2024).
Where “and” joins values, the source holds several entries; their conditions need not be identical. Identical values can stand only once.

Legend:
[1] = target: T1, SARS-CoV-2 3CLpro (Severe acute respiratory syndrome coronavirus 2, UniProt P0DTD1); experiment: biochemical; details: protease 30 nM, substrate 20 μM
T1 construct: The SARS-CoV-2 3CL^pro protease and different concentrations of the compounds were added to a 96-well plate

[2] = test system: SARS-CoV-2 B.1.351 strain; experiment: microbe, parasite or virus in culture; details: Severe acute respiratory syndrome coronavirus 2, Vero C1008, 24 h
[3] = test system: 47 safety-related targets; details: read-out: ECo on 47 safety-related targets
Excerpt: For the 78 tests related to the 47 safe targets, the experimental methods used include: cAMP assay, calcium flux assay, hormone nuclear receptor assay, kinase binding assay, enzyme activity assay, neurotransmitter transporter assay, ion channel assay, and transporter assay.

[4] = in vitro; details: African green monkey
Description: In the cytotoxicity test, Vero E6 cells were digested and placed in a culture medium (90% DMEM, 10% fetal bovine serum), inoculated into a 96-well plate at 20000 cells per well, and cultured overnight. The compound to be tested was dissolved in DMSO to prepare a 40 mM stock solution, and further serially diluted with a culture medium or a culture medium containing 0.5 μM Pgp inhibitor to obtain the concentration required for the test.

[5] = test system: SARS-CoV-2 Omicron strain (B.1.1.529); experiment: microbe, parasite or virus in culture; details: Severe acute respiratory syndrome coronavirus 2, Vero C1008
[6] = test system: SARS-CoV-2 delta strain; details: mouse, in vivo
[7] = cynomolgus monkey, in vivo

SMILES | IC50 [1] [µM] | other results
CC(C)(C)OC(=O)N[C@H](C(=O)N1CC2(C[C@H]1C(=O)N[C@H](C#N)C[C@@H]1CCNC1=O)SCCS2)C(C)(C)C [Compound 1] | < 0.1 | 
CC(C)(C)[C@H](NC(=O)C(F)(F)F)C(=O)N1CC2(C[C@H]1C(=O)N[C@H](C#N)C[C@@H]1CCNC1=O)SCCS2 [Compound 2] |  | EC50 [2]: 0.73 µM; EC50 [3]: > 100 µM; CC50 [4]: > 500 µM; IC50 [5]: 0.12 µM; Viral load, brain tissue, Day 2 [6]: 0.77 ± 0.20 log10 copies/mg and 1.04 ± 0.24 log10 copies/mg; Viral load, lung tissue, Day 4 [6]: 7.88 ± 0.74 log10 copies/g and 7.48 ± 0.63 log10 copies/g; body weight of the mice [6]: did not decrease significantly; decrease of virus copy number in the lung compared with the model group [6]: 2.4 log 10 copies/g; decrease of virus titer in the lung compared with the model group [6]: more than 3 log 10 PFU/g; effect on virus titer in the lung [6]: sustained inhibitory effect; histopathological analysis of the lung [6]: significantly improved lung damage; virus titer in the brain (plaque test) [6]: no virus titer was determined; virus titer in the lung (plaque test) [6]: no titer was detected; arrhythmia [7]: no arrhythmia related to the test product; change in the cardiovascular system [7]: no change in the cardiovascular system related to the test product; changes in ECG parameters or blood pressure [7]: no changes in ECG parameters or blood pressure related to the test product
CC(=O)N[C@H](C(=O)N1CC2(C[C@H]1C(=O)N[C@H](C#N)C[C@@H]1CCNC1=O)SCCS2)C(C)(C)C [Compound 3] | < 0.1 | 
CC(C)(C)[C@H](NC(=O)C1CC1)C(=O)N1CC2(C[C@H]1C(=O)N[C@H](C#N)C[C@@H]1CCNC1=O)SCCS2 [Compound 4] | < 0.1 | 
COC(=O)N[C@H](C(=O)N1CC2(C[C@H]1C(=O)N[C@H](C#N)C[C@@H]1CCNC1=O)SCCS2)C(C)(C)C [Compound 6] | 0.1 to 1 | 
CC(C)(C)[C@H](NC(=O)c1ccccc1)C(=O)N1CC2(C[C@H]1C(=O)N[C@H](C#N)C[C@@H]1CCNC1=O)SCCS2 [Compound 8] | 1 to 10 | 
CC(C)(C)[C@H](NC(=O)c1cc(C(F)(F)F)cc(C(F)(F)F)c1)C(=O)N1CC2(C[C@H]1C(=O)N[C@H](C#N)C[C@@H]1CCNC1=O)SCCS2 [Compound 9] | 1 to 10 | 
Cc1cc(C)cc(C(=O)N[C@H](C(=O)N2CC3(C[C@H]2C(=O)N[C@H](C#N)C[C@@H]2CCNC2=O)SCCS3)C(C)(C)C)c1 [Compound 10] | 1 to 10 | 
CC(C)(C)[C@H](NC(=O)CC(F)(F)F)C(=O)N1CC2(C[C@H]1C(=O)N[C@H](C#N)C[C@@H]1CCNC1=O)SCCS2 [Compound 11] | 0.1 to 1 | 
CC(C)(C)[C@H](NC(=O)c1cccnc1)C(=O)N1CC2(C[C@H]1C(=O)N[C@H](C#N)C[C@@H]1CCNC1=O)SCCS2 [Compound 12] | 1 to 10 | 
CC(C)(C)[C@H](NC(=O)C(F)(F)C(F)(F)F)C(=O)N1CC2(C[C@H]1C(=O)N[C@H](C#N)C[C@@H]1CCNC1=O)SCCS2 [Compound 13] | < 0.1 | 
N#C[C@H](C[C@@H]1CCNC1=O)NC(=O)[C@@H]1CC2(CN1C(=O)[C@@H](NC(=O)C(F)(F)F)C1CCCC1)SCCS2 [Compound 14] | < 0.1 | 
CC(C)(C)[C@H](NS(=O)(=O)c1ccccc1)C(=O)N1CC2(C[C@H]1C(=O)N[C@H](C#N)C[C@@H]1CCNC1=O)SCCS2 [Compound 17] | 1 to 10 | 
CC(C)(C)[C@H](NC(=O)C(F)(F)F)C(=O)N1CC2(C[C@H]1C(=O)N[C@H](C#N)C[C@@H]1CCNC1=O)OCCO2 [Compound 18] | < 0.1 | 
CC(C)(C)[C@H](NC(=O)C(F)(F)F)C(=O)N1C[C@H](Sc2ccccc2)C[C@H]1C(=O)N[C@H](C#N)C[C@@H]1CCNC1=O [Compound 19] | 1 to 10 | 
CC(C)(C)[C@H](NC(=O)c1c(F)c(F)c(F)c(F)c1F)C(=O)N1CC2(C[C@H]1C(=O)N[C@H](C#N)C[C@@H]1CCNC1=O)SCCS2 [Compound 20] | 0.1 to 1 | 
N#C[C@H](C[C@@H]1CCNC1=O)NC(=O)[C@@H]1CC2(CN1C(=O)[C@@H](NC(=O)C1(F)CC1)C1CCCC1)SCCS2 [Compound 21] | < 0.1 | 
CC(C)(C)[C@H](NC(=O)C(F)(F)C(F)(F)F)C(=O)N1CC2(C[C@H]1C(=O)N[C@H](C#N)C[C@@H]1CCCNC1=O)SCCS2 [Compound 22] | < 0.1 | 
N#C[C@H](C[C@@H]1CCNC1=O)NC(=O)[C@@H]1CC2(CN1C(=O)[C@@H](NC(=O)C(F)(F)F)C13CC4CC(CC(C4)C1)C3)SCCS2 [Compound 23] | < 0.1 | 
